These results are taken from US20210337839A1, “SYSTEM AND METHOD FOR RECO[…]” (Restrain Company Limited, priority 2020, published 2021).

For this assay, the system named is fontane variety of potatoes. The procedure: There now follows a description of an experimental trial by the inventors
The goal of the trial was to recondition French fry tubers in a 2-3 week period to improve fry colour and maintain brittle sprouts.
3 trial cells were operated, each 85 cubic meters in size and holding fontane variety of potatoes. The stores holding each trial cell stores were warmed to 12.5° C.
A sample was taken from each cell. Each sample was made up of 25 tubers from the front and the back of the store. The tubers selected were showing signs of sprouting in some degree and have had variable and in some cases poor fry color results.
The first sample was sent for a benchmark Soleye fry colour measurement. Soleye is an optical colour reader used to determine fry colour.
Gradually reducing the ethylene level by 0.5 ppm per day from […] @ 12 C
First 7 days 4 ppm and from day 8 reduced to continuous 2 ppm @ 12 C

Regarding `C=C` [ethylene], for the setting “after reconditioning, samples from store 64: continuous 2 ppm ethylene @ 12 C, FIG. 3”, the “Soleye fry colour score (the lower the score, the better the fry colour)” value is 0. The “sprout condition following reconditioning” value (cells 56, 60 and 64, ethylene programmes at 12 C, 2-3 week period, all tubers) was “maintained brittle sprouts”.
